Reference: ChEMBL document CHEMBL3885881, “DrugMatrix”

Species: Rattus norvegicus
Assay: DrugMatrix - Regimen: Daily Repeat
Assay type: toxicity, organism-based, Sprague-Dawley
Parameters: regimen Daily Repeat, gender Male, age 6-8 weeks
Conditions: in vivo, vehicle 100 % SALINE; for ABSOLUTE MONOCYTE / ABSOLUTE SEGMENTED NEUTROPHIL / BASOPHIL / EOSINOPHIL / ERYTHROCYTE COUNT / HEMATOCRIT / HEMOGLOBIN / LEUKOCYTE COUNT / LYMPHOCYTE / MEAN CORPUSCULAR HEMOGLOBIN / MEAN CORPUSCULAR HEMOGLOBIN CONCENTRATION / MEAN CORPUSCULAR VOLUME / MONOCYTE / NEUTROPHIL / PLATELET COUNT / ABSOLUTE BASOPHIL / ABSOLUTE EOSINOPHIL / ABSOLUTE LYMPHOCYTE: tissue Blood; for ALANINE AMINOTRANSFERASE / ALBUMIN / ALKALINE PHOSPHATASE / ASPARTATE AMINOTRANSFERASE / BLOOD UREA NITROGEN / CHLORIDE / CHOLESTEROL / CREATINE PHOSPHOKINASE / CREATININE / GLUCOSE / LACTATE DEHYDROGENASE / LIPASE / PHOSPHORUS / POTASSIUM / SODIUM / TOTAL BILIRUBIN / TOTAL PROTEIN / URIC ACID: tissue Plasma
[1] = ip, 160 mg/kg, 120 h, route intraperitoneal, dose level High, time 5 day
[2] = ip, 160 mg/kg, […], route intraperitoneal, dose level High, time 14 day
[3] = ip, 160 mg/kg, […], route intraperitoneal, dose level High, time 28 day
[4] = iv, 0 mg/kg, 72 h, dose level Control, time 3 day

**Q.** What does the source list for `NCC[C@H](O)C(=O)N[C@@H]1C[C@H](N)[C@@H](O[C@H]2O[C@H](CN)[C@@H](O)[C@H](O)[C@H]2O)[C@H](O)[C@H]1O[C@H]1O[C@H](CO)[C@@H](O)[C@H](N)[C@H]1O` [AMIKACIN]?
**A.** ABSOLUTE MONOCYTE [1]: 130 cells/µL; ABSOLUTE SEGMENTED NEUTROPHIL [1]: 830 cells/µL; BASOPHIL [1]: 0.52%; EOSINOPHIL [1]: 0.92%; ERYTHROCYTE COUNT [1]: 7.72 x10E6/uL; HEMATOCRIT [1]: 47.66%; HEMOGLOBIN [1]: 15.46 G/DL; LEUKOCYTE COUNT [1]: 8.36 x10E3/uL; LYMPHOCYTE [1]: 86.2%; MEAN CORPUSCULAR HEMOGLOBIN [1]: 20.02 pg; MEAN CORPUSCULAR HEMOGLOBIN CONCENTRATION [1]: 32.44 G/DL; MEAN CORPUSCULAR VOLUME [1]: 61.7 fL; MONOCYTE [1]: 1.62%; NEUTROPHIL [1]: 10.4%; PLATELET COUNT [1]: 1365.6 x10E3/uL; ALANINE AMINOTRANSFERASE [1]: 28.8 u/L; ALBUMIN [1]: 3.56 G/DL; ALKALINE PHOSPHATASE [1]: 209.4 u/L; ASPARTATE AMINOTRANSFERASE [1]: 80.6 u/L; BLOOD UREA NITROGEN [1]: 14.6 mg/dL; CHLORIDE [1]: 107.2 MEQ/L; CHOLESTEROL [1]: 62.4 mg/dL; CREATINE PHOSPHOKINASE [1]: 231.2 u/L; CREATININE [1]: 0.56 mg/dL; GLUCOSE [1]: 136.6 mg/dL; LACTATE DEHYDROGENASE [1]: 109.8 u/L; LIPASE [1]: 23.8 u/L; PHOSPHORUS [1]: 11.74 mg/dL; POTASSIUM [1]: 5.46 MEQ/L; SODIUM [1]: 147 MEQ/L; TOTAL BILIRUBIN [1]: 0.22 mg/dL; TOTAL PROTEIN [1]: 6.1 G/DL; URIC ACID [1]: 1.12 mg/dL; ABSOLUTE BASOPHIL [2]: 120 cells/µL; ABSOLUTE EOSINOPHIL [2]: 120 cells/µL; ABSOLUTE LYMPHOCYTE [2]: 10400 cells/µL; ABSOLUTE MONOCYTE [2]: 290 cells/µL; ABSOLUTE SEGMENTED NEUTROPHIL [2]: 1840 cells/µL; BASOPHIL [2]: 0.88%; EOSINOPHIL [2]: 0.88%; ERYTHROCYTE COUNT [2]: 7.68 x10E6/uL; HEMATOCRIT [2]: 45.32%; HEMOGLOBIN [2]: 14.88 G/DL; LEUKOCYTE COUNT [2]: 12.88 x10E3/uL; LYMPHOCYTE [2]: 80.34%; MEAN CORPUSCULAR HEMOGLOBIN [2]: 19.4 pg; MEAN CORPUSCULAR HEMOGLOBIN CONCENTRATION [2]: 32.88 G/DL; MEAN CORPUSCULAR VOLUME [2]: 59.02 fL; MONOCYTE [2]: 2.26%; NEUTROPHIL [2]: 15.14%; PLATELET COUNT [2]: 1513.4 x10E3/uL; ABSOLUTE BASOPHIL [3]: 97 cells/µL; ABSOLUTE EOSINOPHIL [3]: 87 cells/µL; ABSOLUTE LYMPHOCYTE [3]: 9100 cells/µL; ABSOLUTE MONOCYTE [3]: 180 cells/µL; ABSOLUTE SEGMENTED NEUTROPHIL [3]: 1340 cells/µL; BASOPHIL [3]: 0.88%; EOSINOPHIL [3]: 0.84%; ERYTHROCYTE COUNT [3]: 7.95 x10E6/uL; HEMATOCRIT [3]: 44.83%; HEMOGLOBIN [3]: 14.88 G/DL; LEUKOCYTE COUNT [3]: 10.86 x10E3/uL; LYMPHOCYTE [3]: 83.57%; MEAN CORPUSCULAR HEMOGLOBIN [3]: 18.72 pg; MEAN CORPUSCULAR HEMOGLOBIN CONCENTRATION [3]: 33.24 G/DL; MEAN CORPUSCULAR VOLUME [3]: 56.35 fL; MONOCYTE [3]: 1.64%; NEUTROPHIL [3]: 12.66%; PLATELET COUNT [3]: 1439.3 x10E3/uL; ALANINE AMINOTRANSFERASE [2]: 30.4 u/L; ALBUMIN [2]: 3.44 G/DL; ALKALINE PHOSPHATASE [2]: 190.6 u/L; ASPARTATE AMINOTRANSFERASE [2]: 79.6 u/L; BLOOD UREA NITROGEN [2]: 13 mg/dL; CHLORIDE [2]: 107.8 MEQ/L; CHOLESTEROL [2]: 70.8 mg/dL; CREATINE PHOSPHOKINASE [2]: 151.2 u/L; CREATININE [2]: 0.5 mg/dL; GLUCOSE [2]: 119.8 mg/dL; LACTATE DEHYDROGENASE [2]: 78.6 u/L; LIPASE [2]: 32 u/L; PHOSPHORUS [2]: 9.94 mg/dL; POTASSIUM [2]: 5.62 MEQ/L; SODIUM [2]: 150.6 MEQ/L; TOTAL BILIRUBIN [2]: 0.2 mg/dL; TOTAL PROTEIN [2]: 6.18 G/DL; URIC ACID [2]: 0.66 mg/dL; ALANINE AMINOTRANSFERASE [3]: 29.6 u/L; ALBUMIN [3]: 3.6 G/DL; ALKALINE PHOSPHATASE [3]: 128.89 u/L; ASPARTATE AMINOTRANSFERASE [3]: 84.7 u/L; BLOOD UREA NITROGEN [3]: 17.7 mg/dL; CHLORIDE [3]: 105.6 MEQ/L; CHOLESTEROL [3]: 62.1 mg/dL; CREATINE PHOSPHOKINASE [3]: 292.2 u/L; CREATININE [3]: 0.65 mg/dL; GLUCOSE [3]: 136.2 mg/dL; LACTATE DEHYDROGENASE [3]: 129.6 u/L; LIPASE [3]: 17.1 u/L; PHOSPHORUS [3]: 10.04 mg/dL; POTASSIUM [3]: 6.81 MEQ/L; SODIUM [3]: 152.5 MEQ/L; TOTAL BILIRUBIN [3]: 0.26 mg/dL; TOTAL PROTEIN [3]: 6.48 G/DL; URIC ACID [3]: 1.45 mg/dL; ABSOLUTE BASOPHIL [4]: 0 CELLS/uL; ABSOLUTE EOSINOPHIL [4]: 0 CELLS/uL; ABSOLUTE LYMPHOCYTE [4]: 7637.67 CELLS/uL; ABSOLUTE MONOCYTE [4]: 67.83 CELLS/uL; ABSOLUTE SEGMENTED NEUTROPHIL [4]: 661.17 CELLS/uL; BASOPHIL [4]: 0%
